From patent US10197552B2, “Monitoring cell-to-cell interactions” (Oakland University, priority 2015, dated 2019)

Assays:
Assay type in all cases: cell-based, human
[1] = tested on: adhesion of KG-1 cells to activated HUVECs; test: QCM response to KG-1 cell binding on HUVECs activated with different TNF-α concentrations; details: 25×10^4 KG-1 cells on HUVECs activated by TNF-α at different concentrations; FIGS. 12C, 12D
Description: (§1) Next, the EGM-2 medium was replaced by a medium containing 10% FBS and TNF-α with a specified concentration (ranging from 0 ng/ml to […]), allowing the HUVECs to suffer growth and activation up to 20 hours. After the concentration of HL-60 and KG-1 cells reached 5×10^6 cells mL^−1, they were collected from the medium by centrifugation at 1500 g for 5 minutes to remove IMDM, and were re-suspended with EGM-2 medium supplemented with 10% FBS. This was performed to reduce variations of the viscosity of the medium for measurements. The density of these suspension cells was determined with a hemacytometer.
Finally, 100 μL of the cell-suspending solution was added into the measuring chamber. The Δf0 and ΔR1 responses were simultaneously monitored for 22 hours.
These examples confirmed that AML cells adhere to activated HUVECs based on binding with E-selectin. It is possible that the extent of activation of HUVECs, which is closely related to TNF-α concentration, should have an influence on the binding of AML cells. FIGS. 12A and 12B show the QCM responses induced by the addition of KG-1 cells with the same concentration (i.e., 25×10^4) on activated HUVECs after stimulation of TNF-α with different concentrations. […]

HUVECs = test: QCM monitoring of HUVEC activation by TNF-α, with microscope observation
Description: The gold QCM consists of a thin AT-cut quartz crystal wafer with a gold electrode on each side (9 MHz, non-polished with ˜1000 Å gold, geometric area is 0.28 cm^2, Beijing Chenjing Electronics Co., Ltd., China). The gold QCM was mounted between two biocompatible silicon O-rings to allow only one side of the gold electrode to be exposed to the liquid. The reaction chamber above the crystal was held with a 1 mL chlorinated polyethylene centrifugal tube. The device, being covered, was placed in a humidified CO2 incubator controlled at 5% CO2 and 37° C. to prevent evaporation from the culture holder.
An RQCM instrument (Maxtek Inc., USA) was used to simultaneously record resonant frequency (f0) and motional resistance (R1) of the QCM electrodes.
After being sterilized with 75% ethanol under UV light for 0.5 hours, the QCM culture-chamber was washed three times with PBS. Then, 500 μL of EGM-2 medium was added and the entire culture-chamber was put into the incubator. As soon as the QCM readout reached a stable baseline, 50 μL of EGM-2 medium containing freshly trypsinized 3×10^4 cells was added. All QCM measurements were performed in a static mode without stirring. The Δf0 and ΔR1 responses were simultaneously monitored in the process of cell attachment and growth in the next 24 hours.
as §1, with “hemacytometer. […]” for “hemacytometer.”

[2] = tested on: adhesion of AML cells (KG-1) to HUVECs; test: Number of adherent AML cells on HUVECs in co-culture, flow cytometric analysis; details: treated KG-1/HUVEC co-cultures as, in comparison to untreated controls; FIG. 15
Description: (§2) As illustrated throughout Example 1, acute myeloid leukemia (AML) cells mediate endothelial cell (EC) activation. In this Example, the effects of anti-inflammatories, namely thalidomide and lenalidomide, to prevent AML induced EC activation were tested. KG-1 cells were pre-treated with 100 μM thalidomide or 1 μM lenalidomide (half of total dose) for 1-hour. Co-cultures were then established by adding the pre-treated KG-1 cells (1×10^6 cells) to cultures containing HUVECs (˜80% confluence) with the addition of the second half of the total dose of the respective anti-inflammatories. After 24-hours, E-selectin expression on HUVECs was measured as a marker of EC activation using flow cytometry. Untreated (i.e., no anti-inflammatory added) co-cultures of KG-1 on HUVECs were used as controls. The results are shown in FIG. 14, where the + indicates whether the co-culture was the control, was treated with thalidomide, or was treated with lenalidomide.
It was determined whether thalidomide and lenalidomide were able to reduce EC activation mediated AML cell adhesion. Adherent cells were collected from treated (as described above) and control co-cultures, and the numbers of adherent AML cells in each population were enumerated based on flow cytometric analysis. […]

[3] = tested on: E-selectin expression on HUVECs; test: E-selectin expression on HUVECs in KG-1 co-cultures, flow cytometry (marker of EC activation); details: KG-1/HUVEC co-culture, 24 hours; KG-1 pre-treated 1 hour with 100 μM thalidomide or 1 μM lenalidomide (half of total dose), second half added to co-culture; vs untreated co-cultures; FIG. 14
Description: as §2

[4] = maximum reported concentration of TNF-α (range 0 to 400 ng ml^−1), 3×10^4 HUVECs on QCM gold electrode

Compound	QCM response shifts (|Δf0| and ΔR1 changes) on addition of KG-1 cells [1]	activation of HUVECs (shape-change, microscope images) (HUVECs; 40, 200 and 400 ng mL^−1 TNF-α, FIGS. 5B-5D)	frequency shifts in Stage IV as compared to those in Stage I (HUVECs; [4]) [%]	resistance changes in Stage IV as compared to those in Stage I (HUVECs; [4]) [%]	numbers of adherent AML cells [2]	E-selectin expression on HUVECs [3]
TNF-α	increased with enhancement of TNF-α concentrations in the range of 2 ng mL^−1-200 ng mL^−1	effectively induce the activation of HUVECs in a dose dependent manner	15	7		
Nc1cccc2c1CN(C1CCC(=O)NC1=O)C2=O (centres unmarked) [lenalidomide]					significantly reduce	significant reduction
O=C1CCC(N2C(=O)c3ccccc3C2=O)C(=O)N1 (centres unmarked) [thalidomide]					significantly reduce	significant reduction
